From paper PMC8286842, “The structures of E. coli NfsA bound to the antibiotic nitrofurantoin; to 1,4-benzoquinone and to FMN” (Biochemical Journal, 2021)

Biological target: T1, NfsA (Escherichia coli, UniProt P17117)
T1 construct: untagged, dimer
T1 sequence (P17117 1-240): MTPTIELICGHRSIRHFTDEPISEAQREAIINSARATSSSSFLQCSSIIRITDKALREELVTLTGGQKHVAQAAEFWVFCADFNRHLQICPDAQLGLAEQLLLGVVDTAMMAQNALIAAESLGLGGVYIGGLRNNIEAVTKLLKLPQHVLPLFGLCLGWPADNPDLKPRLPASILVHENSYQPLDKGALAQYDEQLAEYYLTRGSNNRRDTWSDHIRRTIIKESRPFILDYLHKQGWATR
Experiment: X-ray crystal structure at […] Å with a second FMN as ligand; steady-state inhibition kinetics
Format: biochemical

## Cc1cc2nc3c(=O)[nH]c(=O)nc-3n(C[C@H](O)[C@H](O)[C@H](O)COP(=O)(O)O)c2cc1C [FMN]
  Ki: ~8 µM
